According to PubChem BioAssay AID328 (DTP/NCI, 2004):
Several values for one entry are separate records, joined by “and”; a condition that tells them apart may be missing. Equal values may be shown once. Toxic doses and inconclusive results are not listed. Non-standard residues stand in square brackets, D forms with d. Residues, ends and D or L forms follow the SMILES beside them. ξ: configuration not given here. *: point of attachment. Cbz = O=C(OCc1ccccc1)*; ξK = NCCCCC(N)C(=O)O

Tested on: BDF1 mice, P388 leukemia ip, median survival T/C
Test: NCI In Vivo Anticancer Drug Screen. Data for tumor model P388 Leukemia (intraperitoneal) in B6D2F1 (BDF1) mice
Settings: endpoint: median survival time, higher = longer survival
Procedure, shortened: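 Each value expresses how treatment altered survival: treated-mouse outcome over vehicle-mouse outcome, both groups bearing the transplanted tumour.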

[1] = dose: 100.0 mg/kg/injection, schedule: Q01DX001 (ip), vehicle: saline with Tween-80
[2] = dose: 200.0 mg/kg/injection, schedule: Q01DX001 (ip), vehicle: saline with Tween-80
[3] = dose: 400.0 mg/kg/injection, schedule: Q01DX001 (ip), vehicle: saline with Tween-80
[4] = dose: 25.0 mg/kg/injection, schedule: Q01DX009 (ip), vehicle: saline with Tween-80
[5] = dose: 50.0 mg/kg/injection, schedule: Q01DX009 (ip), vehicle: saline with Tween-80
[6] = dose: 100.0 mg/kg/injection, schedule: Q01DX009 (ip), vehicle: saline with Tween-80
[7] = dose: 100.0 mg/kg/injection, schedule: Q04DX003 (ip), vehicle: saline with Tween-80
[8] = dose: 200.0 mg/kg/injection, schedule: Q01DX009 (ip), vehicle: saline with Tween-80
[9] = dose: 200.0 mg/kg/injection, schedule: Q04DX003 (ip), vehicle: saline with Tween-80
[10] = dose: 50.0 mg/kg/injection, schedule: Q04DX003 (ip), vehicle: saline
[11] = dose: 50.0 mg/kg/injection, schedule: Q01DX005 (ip), vehicle: saline with Tween-80
[12] = dose: 100.0 mg/kg/injection, schedule: Q01DX005 (ip), vehicle: saline with Tween-80
[13] = dose: 200.0 mg/kg/injection, schedule: Q01DX005 (ip), vehicle: saline with Tween-80
[14] = dose: 200.0 mg/kg/injection, schedule: Q04DX003 (ip), vehicle: Klucel (hydroxypropylcellulose) (HPC)
[15] = dose: 400.0 mg/kg/injection, schedule: Q04DX003 (ip), vehicle: Klucel (hydroxypropylcellulose) (HPC)
[16] = dose: 12.5 mg/kg/injection, schedule: Q01DX009 (ip), vehicle: saline with Tween-80
[17] = dose: 100.0 mg/kg/injection, schedule: Q01DX001 (ip), vehicle: Klucel (hydroxypropylcellulose) (HPC)
[18] = dose: 200.0 mg/kg/injection, schedule: Q01DX001 (ip), vehicle: Klucel (hydroxypropylcellulose) (HPC)
[19] = dose: 400.0 mg/kg/injection, schedule: Q01DX001 (ip), vehicle: Klucel (hydroxypropylcellulose) (HPC)

CC(=O)Nc1ccc2cnn(C(C)=O)c2c1 was tested, and the T/C (dose: 25.0 mg/kg/injection, schedule: Q01DX009 (ip), vehicle: water) was 89 % of control, the T/C (dose: 50.0 mg/kg/injection, schedule: Q01DX009 (ip), vehicle: water) was 86 % of control and the T/C (dose: 50.0 mg/kg/injection, schedule: Q04DX003 (ip), vehicle: water) was 113 % of control. For the same molecule, the T/C (dose: 100.0 mg/kg/injection, schedule: Q01DX009 (ip), vehicle: water) was 88 % of control, the T/C (dose: 100.0 mg/kg/injection, schedule: Q04DX003 (ip), vehicle: water) was 111 % of control and the T/C (dose: 200.0 mg/kg/injection, schedule: Q01DX009 (ip), vehicle: water) was 92 % of control. For the same molecule, the T/C (dose: 200.0 mg/kg/injection, schedule: Q04DX003 (ip), vehicle: water) was 97 % of control, the T/C (dose: 400.0 mg/kg/injection, schedule: Q01DX009 (ip), vehicle: water) was 91 % of control and the T/C (dose: 400.0 mg/kg/injection, schedule: Q04DX003 (ip), vehicle: water) was 97 % of control.
CC(C)(C)c1cc(Br)c(N)c(C(O)(C(F)(F)F)C(F)(F)F)c1 was tested, and the T/C [1] was 105 % of control, the T/C [2] was 109 % of control and the T/C [3] was 111 % of control.
For O=C1c2ccccc2C(=O)N1/N=C/C=C/c1ccccc1, the T/C (dose: 87.5 mg/kg/injection, schedule: Q01DX009 (ip), vehicle: saline with Tween-80) was 106 % of control, the T/C (dose: 175.0 mg/kg/injection, schedule: Q01DX009 (ip), vehicle: saline with Tween-80) was 95 % of control and the T/C (dose: 350.0 mg/kg/injection, schedule: Q01DX009 (ip), vehicle: saline with Tween-80) was 87 % of control.
In the case of [CH3][Sn]([CH3])([CH3])[S]C(=S)N1CCOCC1, the T/C (dose: 0.75 mg/kg/injection, schedule: Q01DX009 (ip), vehicle: Klucel (hydroxypropylcellulose) (HPC)) is reported as 97 % of control.
CCOC(=O)c1cc[nH]c1CC(=O)NCc1ccccc1 was tested, and the T/C [1] was 97 % of control, the T/C [2] was 118 % of control and the T/C [3] was 103 % of control.
In the case of CCOC(=S)SCC(=O)Nc1ccccc1, the T/C [4] is reported as 93 % of control, the T/C [5] is reported as 90 % of control and the T/C [6] is reported as 103 % of control.
For O=c1[nH]c(=O)c(C2OC(CO)C(O)C2O)co1 (centres undefined), the T/C (dose: 20.0 mg/kg/injection, schedule: Q04DX003 (ip), vehicle: saline with Tween-80) was 100 % of control.
For CCN(CC)CCCC(C)NC(=O)c1ccc(Cl)nc1 (centres undefined), the T/C (dose: 37.5 mg/kg/injection, schedule: Q01DX009 (ip), vehicle: saline with Tween-80) was 107 % of control, the T/C [5] was 113 % of control and the T/C (dose: 50.0 mg/kg/injection, schedule: Q04DX003 (ip), vehicle: saline with Tween-80) was 103 % of control. For the same molecule, the T/C (dose: 75.0 mg/kg/injection, schedule: Q01DX009 (ip), vehicle: saline with Tween-80) was 96 % of control, the T/C [7] was 107 % of control and the T/C (dose: 150.0 mg/kg/injection, schedule: Q01DX009 (ip), vehicle: saline with Tween-80) was 117 % of control. For the same molecule, the T/C [8] was 97 % of control and the T/C [9] was 110 % of control.
With Cc1nc2cnn(C)c2nc1C the T/C [10] was 114 % of control, the T/C (dose: 100.0 mg/kg/injection, schedule: Q04DX003 (ip), vehicle: saline) was 113 % of control and the T/C (dose: 200.0 mg/kg/injection, schedule: Q04DX003 (ip), vehicle: saline) was 107 % of control. The T/C (dose: 400.0 mg/kg/injection, schedule: Q04DX003 (ip), vehicle: saline) was 88 % of control.
For CC(C)(O)c1ccccc1[S+]1OC(C)(C)c2ccccc21 (centres undefined), the T/C [1] was 98 % of control, the T/C (dose: 100.0 mg/kg/injection, schedule: Q01DX001 (ip), vehicle: saline) was 100 % of control and the T/C [2] was 103 % of control. For the same molecule, the T/C (dose: 200.0 mg/kg/injection, schedule: Q01DX001 (ip), vehicle: saline) was 102 % of control, the T/C [3] was 118 % of control and the T/C (dose: 400.0 mg/kg/injection, schedule: Q01DX001 (ip), vehicle: saline) was 117 % of control.
For CC(=O)NC(CCCCNC(=O)OCc1ccccc1)C(=O)NCC(=O)O (centres undefined) (Ac-[ξK](Cbz)-Gly-OH), the T/C [11] was 93 % of control, the T/C [12] was 105 % of control and the T/C [13] was 100 % of control.
C/C(N=Nc1ccccc1[N+](=O)[O-])=N\Nc1ccccc1 was tested, and the T/C (dose: 100.0 mg/kg/injection, schedule: Q04DX003 (ip), vehicle: Klucel (hydroxypropylcellulose) (HPC)) was 122 % of control, the T/C [14] was 122 % of control and the T/C [15] was 113 % of control.
COc1cc2c(c(OC)c1OC)-c1ccc(OC)c(=O)cc1[C@@H](NC(=O)c1ccccc1)CC2 was tested, and the T/C (dose: 0.06 mg/kg/injection, schedule: Q01DX009 (ip), vehicle: saline sonified) was 112 % of control, the T/C (dose: 0.12 mg/kg/injection, schedule: Q01DX009 (ip), vehicle: saline sonified) was 116 % of control and the T/C (dose: 0.5 mg/kg/injection, schedule: Q01DX009 (ip), vehicle: saline sonified) was 163 % of control. For the same molecule, the T/C (dose: 1.0 mg/kg/injection, schedule: Q01DX009 (ip), vehicle: saline sonified) was 190 % of control, the T/C (dose: 2.0 mg/kg/injection, schedule: Q01DX009 (ip), vehicle: saline sonified) was 254 % of control and 109 % of control and the T/C (dose: 3.3 mg/kg/injection, schedule: Q04DX003 (ip), vehicle: saline) was 159 % of control. For the same molecule, the T/C (dose: 4.0 mg/kg/injection, schedule: Q01DX009 (ip), vehicle: saline sonified) was 272 % of control, the T/C (dose: 5.0 mg/kg/injection, schedule: Q04DX003 (ip), vehicle: saline) was 200 % of control and the T/C (dose: 6.0 mg/kg/injection, schedule: Q01DX009 (ip), vehicle: saline sonified) was 162 % of control. The T/C (dose: 7.5 mg/kg/injection, schedule: Q04DX003 (ip), vehicle: saline) was 204 % of control.
In the case of NC(=S)/N=C\C(CC(O)C(O)C(O)CO)=N\NC(N)=S (centres undefined), the T/C (dose: 6.25 mg/kg/injection, schedule: Q01DX009 (ip), vehicle: saline with Tween-80) is reported as 88 % of control and 97 % of control and 100 % of control, the T/C [16] is reported as 99 % of control and 100 % of control and 108 % of control and the T/C [5] is reported as 97 % of control and 115 % of control.
CCN(CC)CCC1(C(N)=O)Cc2ccccc2N(CC)c2ccccc21 (centres undefined) was tested, and the T/C [6] was 100 % of control and the T/C [8] was 100 % of control.
CSc1ccc2c(c1)C(N1CCN(C)CC1)Cc1ccccc1S2 (centres undefined) was tested, and the T/C (dose: 6.25 mg/kg/injection, schedule: Q04DX003 (ip), vehicle: saline) was 113 % of control, the T/C (dose: 25.0 mg/kg/injection, schedule: Q04DX003 (ip), vehicle: saline) was 114 % of control and the T/C [10] was 107 % of control.
With O=C(O)CNOCN1C(=O)c2ccccc2C1=O the T/C [17] was 104 % of control, the T/C [18] was 91 % of control and the T/C [19] was 95 % of control.
For COc1ccc(C(=O)C(C)Br)c(OCc2ccccc2)c1OC (centres undefined), the T/C [16] was 100 % of control, the T/C [4] was 95 % of control and the T/C [5] was 100 % of control. For the same molecule, the T/C [6] was 90 % of control, the T/C [7] was 95 % of control and the T/C [8] was 95 % of control. For the same molecule, the T/C [9] was 114 % of control and the T/C (dose: 400.0 mg/kg/injection, schedule: Q04DX003 (ip), vehicle: saline with Tween-80) was 104 % of control.
O=C1C(Br)=CC(=NCl)C=C1Br was tested, and the T/C (dose: 3.13 mg/kg/injection, schedule: Q01DX009 (ip), vehicle: Klucel (hydroxypropylcellulose) (HPC)) was 118 % of control, the T/C (dose: 6.25 mg/kg/injection, schedule: Q01DX009 (ip), vehicle: Klucel (hydroxypropylcellulose) (HPC)) was 112 % of control and the T/C (dose: 12.5 mg/kg/injection, schedule: Q01DX009 (ip), vehicle: Klucel (hydroxypropylcellulose) (HPC)) was 120 % of control. The T/C (dose: 25.0 mg/kg/injection, schedule: Q01DX009 (ip), vehicle: Klucel (hydroxypropylcellulose) (HPC)) was 103 % of control.
In the case of Nc1cc(=O)n(Cc2ccco2)c(=S)[nH]1, the T/C [11] is reported as 93 % of control, the T/C [12] is reported as 102 % of control and the T/C [13] is reported as 100 % of control.
For CN/N=C/c1c2c(O)c3c(O)c(C)c4c(c3c1O)C(=O)C(C)(O/C=C/C(OC)C(C)C(OC(C)=O)C(C)C(O)C(C)C(O)C(C)/C=C/C=C(/C)C(=O)N2)O4 (centres undefined), the T/C [5] was 90 % of control, the T/C [6] was 116 % of control and the T/C [8] was 117 % of control.
For CCOC(=O)C1OC12CCCCC2 (centres undefined), the T/C [17] was 109 % of control, the T/C [18] was 100 % of control and the T/C [14] was 100 % of control. For the same molecule, the T/C [19] was 113 % of control and the T/C [15] was 116 % of control.
Cc1cccc(N2CCNCC2)c1 was tested, and the T/C (dose: 6.25 mg/kg/injection, schedule: Q04DX003 (ip), vehicle: saline sonified) was 95 % of control, the T/C (dose: 12.5 mg/kg/injection, schedule: Q04DX003 (ip), vehicle: saline sonified) was 100 % of control and the T/C (dose: 25.0 mg/kg/injection, schedule: Q04DX003 (ip), vehicle: saline sonified) was 109 % of control.
